Tests used:
[1] = Test 4: metabolic stability test in human hepatic microsome; assay type: in vitro ADME; settings: 0.1 mg/mL microsome, 0.1 μmol/L compound, NADPH, 37° C., 30 minutes
Description: Test 4: Metabolic Stability Test in Human Hepatic Microsome
The stability of the present compound in human hepatic microsome metabolism was evaluated as mentioned below. Human hepatic microsome was obtained from Xenontech. Human hepatic microsome, NADPH, and each test compound were mixed in 25 mmol/L phosphate buffer solution (pH 7.4) to reach the following concentrations as shown below, and the mixture was incubated at 37° C. for 30 minutes. • Human hepatic microsome: 0.1 mg/mL • NAPDH: 3.2 mmol/L • Test compound: 0.1 μmol/L
The residual ratio of the test compound in each sample after 30 minutes was measured by LC-MS, and the metabolic stability in human hepatic microsome was calculated from the following formula. Metabolic stability in human hepatic microsome (mL/min/mg protein)=−LN(residual ratio)/30/0.1

human D2 receptor = human D2 receptor (Homo sapiens (Human), UniProt P14416); assay: Test 1: binding activity for human D2 receptor ([3H]Spiperone); settings: for D2 Ki/5-HT1A Ki: ratio of D2 Ki to 5-HT1A Ki; for D2 Ki/5-HT2A Ki: ratio of D2 Ki to 5-HT2A Ki
Chain of human D2 receptor (P14416 whole entry): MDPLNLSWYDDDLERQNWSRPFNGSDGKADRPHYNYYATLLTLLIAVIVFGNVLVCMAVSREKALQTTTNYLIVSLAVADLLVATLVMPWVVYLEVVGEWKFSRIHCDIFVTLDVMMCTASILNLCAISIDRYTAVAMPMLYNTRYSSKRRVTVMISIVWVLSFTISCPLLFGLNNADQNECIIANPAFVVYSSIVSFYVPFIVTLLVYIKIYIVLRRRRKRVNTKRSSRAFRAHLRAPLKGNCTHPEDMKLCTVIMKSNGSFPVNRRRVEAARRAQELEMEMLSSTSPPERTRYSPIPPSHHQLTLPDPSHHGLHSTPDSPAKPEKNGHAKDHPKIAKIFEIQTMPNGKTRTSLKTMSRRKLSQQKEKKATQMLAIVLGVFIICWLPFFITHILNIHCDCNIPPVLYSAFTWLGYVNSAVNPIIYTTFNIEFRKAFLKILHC
Description: Test 1: Evaluation of Binding Activity for Human 5-HT1A Receptor, Human 5-HT2A Receptor, and Human D2 Receptor
Binding affinity of the present compound for human 5-HT1A receptor, human 5-HT2A receptor, and human D2 receptor was measured by the following procedures.
Each mixture was incubated at room temperature for 60 minutes. Then, the mixture was added quickly on a glassfiber filter plate (Multiscreen FB, Millipore, Inc.) coated with 0.3% aqueous polyethylenimine, and vacuum-filtered. Radioactivity remaining on the filter was measured with a liquid scintillation counter (PerkinElmer, Inc.). Binding inhibition rate was calculated from the following formula.
Ki of each compound was calculated from the following formula. Binding inhibition constant (Ki)=IC50/(1+S/Kd) wherein S is concentration of ligand; Kd is a binding dissociation constant of ligand to membrane, which is calculated from a saturated binding experiment conducted with the same cell membrane. A small Ki value means strong binding ability to a receptor.

| Metabolic stability in human hepatic microsome [1] [mL/min/mg protein] | D2 Ki/5-HT1A Ki (human D2 receptor) | SMILES | D2 Ki/5-HT2A Ki (human D2 receptor) |
| --- | --- | --- | --- |
| 0.019 | 9 | Cn1ncc2c1C(=O)N(CCN1CCC(c3noc4ccccc34)CC1)CC2 [Example 96, 6-{2-[4-(1,2-Benzoisoxazol-3-yl)piperidin-1-yl]ethyl}-1-methyl-1,4,5,6-tetrahydro-7H-pyrazolo[3,4-c]pyridin-7-one] | 14 |
| – | – | COc1ccc2onc(C3CCN(CCN4CCc5cccnc5C4=O)CC3)c2c1 [Example 142] | >61.0 |
| – | 17 | Cn1cnc2c1CCCN(CCN1CCC(c3noc4ccccc34)CC1)C2=O [Example 101, 5-{2-[4-(1,2-Benzoisoxazol-3-yl)piperidin-1-yl]ethyl}-1-methyl-5,6,7,8-tetrahydroimidazo[4,5-c]azepin-4(1H)-one] | – |
| <0.05 | 5.8 | Cc1cncc2c1CCN(CCN1CCN(c3noc4ccccc34)CC1)C2=O [Example 137] | – |
| <0.01 | – | O=C1c2ncccc2CCN1CCN1CCC(c2nsc3ccccc23)CC1 [Example 26] | – |
| <0.01 | – | Cn1cnc2c1CCN(CCN1CCC(c3noc4ccccc34)CC1)C2=O [Example 16] | – |
| <0.01 | – | Cc1n[nH]c2c1C(=O)N(CCN1CCC(c3noc4ccccc34)CC1)CC2 [Example 99, 5-{2-[4-(1,2-Benzoisoxazol-3-yl)piperidin-1-yl]ethyl}-3-methyl-1,5,6,7-tetrahydro-4H-pyrazolo[4,3-c]pyridin-4-one] | – |
| 0.038 | – | Cn1cc2c(n1)C(=O)N(CCN1CCN(c3nsc4ccccc34)CC1)CC2 [Example 50] | – |
| 0.092 | – | O=C1c2cncnc2CCN1CCN1CCN(c2nsc3ccccc23)CC1 [Example 58] | – |
| <0.01 | – | Cn1cc2c(n1)CCN(CCN1CCC(c3noc4ccccc34)CC1)C2=O [Example 17] | – |
| 0.011 | – | O=C1c2ncccc2CCN1CCN1CCC(c2noc3cc(F)ccc23)CC1 [Example 4] | – |
| – | – | O=C1c2cnc(OC3COC3)cc2CCN1CCN1CCN(c2nsc3ccccc23)CC1 [Example 111, 2-{2-[4-(1,2-Benzoisothiazol-3-yl)piperazin-1-yl]ethyl}-6-[(oxetan-3-yl)oxy]-3,4-dihydro-2,7-naphthyridin-1(2H)-one] | 530 |
| <0.01 | – | O=C1c2ncccc2CCN1CCN1CCC(c2noc3ccc(F)cc23)CC1 [Example 5] | – |
| <0.05 | – | O=c1c2ncccc2ccn1CCN1CCN(c2noc3ccccc23)CC1 [Example 117] | – |
| 0.074 | – | Cc1noc2c1C(=O)N(CCN1CCC(c3noc4ccccc34)CC1)CC2 [Example 33] | – |
| 0.072 | – | CC1CN(CCN2CCC(c3noc4ccccc34)CC2)C(=O)c2ccn(C)c21 (stereo not drawn) [Example 82] | – |
| 0.074 | – | Cc1nc2c(o1)CCN(CCN1CCN(c3nsc4ccccc34)CC1)C2=O [Example 51] | – |
| <0.05 | – | O=C1c2ncoc2CCN1CCN1CCC(c2noc3ccccc23)CC1 [Example 190, 5-{2-[4-(1,2-Benzoisoxazol-3-yl)piperidin-1-yl]ethyl}-6,7-dihydro[1,3]oxazolo[4,5-c]pyridin-4(5H)-one] | – |
| 0.043 | – | Cc1nc2c(o1)CCCN(CCN1CCN(c3nsc4ccccc34)CC1)C2=O [Example 52] | – |
| 0.012 | – | Cn1ncc2c1CCCN(CCN1CCN(c3noc4ccccc34)CC1)C2=O [Example 80] | – |
| 0.100 | – | Cn1cc2c(n1)CCCN(CCN1CCN(c3nsc4ccccc34)CC1)C2=O [Example 42] | – |
| <0.01 | – | O=C1c2cn[nH]c2CCCN1CCN1CCC(c2noc3ccccc23)CC1 [Example 97, 5-{2-[4-(1,2-Benzoisoxazol-3-yl)piperidin-1-yl]ethyl}-5,6,7,8-tetrahydropyrazolo[4,3-c]azepin-4(1H)-one] | – |

| Metabolic stability in human hepatic microsome [1] [mL/min/mg protein] | D2 Ki/5-HT1A Ki (human D2 receptor) | SMILES | D2 Ki/5-HT2A Ki (human D2 receptor) |
| --- | --- | --- | --- |
| <0.01 | – | Cn1ccc2c1CCCN(CCN1CCN(c3noc4ccccc34)CC1)C2=O [Example 109, 5-{2-[4-(1,2-Benzoisoxazol-3-yl)piperazin-1-yl]ethyl}-1-methyl-5,6,7,8-tetrahydropyrrolo[3,2-c]azepin-4 (H)-one] | – |
| <0.05 | – | O=C1c2occc2CCN1CCN1CCC(c2noc3ccccc23)CC1 [Example 127] | – |
| <0.01 | – | Cn1cc2c(n1)CCCN(CCN1CCC(c3noc4ccccc34)CC1)C2=O [Example 41] | – |
| <0.05 | – | O=C1c2c(Br)n[nH]c2CCN1CCN1CCC(c2noc3ccccc23)CC1 [Example 192, 5-{2-[4-(1,2-Benzoisoxazol-3-yl)piperidin-1-yl]ethyl}-3-bromo-1,5,6,7-tetrahydro-4H-pyrazolo[4,3-c]pyridin-4-one] | – |
| <0.01 | – | Cc1noc2c1C(=O)N(CCN1CCN(c3noc4ccccc34)CC1)CC2 [Example 32, 5-{2-[4-(1,2-Benzoisoxazol-3-yl)piperazin-1-yl]ethyl}-3-methyl-6,7-dihydro[1,2]oxazolo[4,5-c]pyridin-4(5H)-one] | – |
| 0.017 | – | Cn1ncc2c1CCC(CCN1CCC(c3noc4ccccc34)CC1)C2=O (stereo not drawn) [Example 28] | – |
| 0.061 | – | Cc1cc2c(C3CCN(CCN4CCc5cccnc5C4=O)CC3)noc2cc1F [Example 6] | – |
| <0.01 | – | Cn1cc2c(n1)C(=O)N(CCN1CCC(c3noc4ccccc34)CC1)CCC2 [Example 48] | – |
| 0.063 | – | Cn1cc2c(n1)C(=O)N(CCN1CCN(c3nsc4ccccc34)CC1)CCC2 [Example 49] | – |
| 0.1 | – | O=c1c2cnccc2ccn1CCN1CCN(c2noc3ccccc23)CC1 [Example 116] | – |
| <0.05 | – | O=c1c2cccnc2ccn1CCN1CCN(c2noc3ccccc23)CC1 [Example 115] | – |
| <0.05 | – | Cc1nc2c(o1)C(=O)N(CCN1CCC(c3noc4ccccc34)CC1)CCC2 [Example 154] | – |
| 0.013 | – | O=C1c2cncnc2CCN1CCN1CCC(c2noc3ccccc23)CC1 [Example 57] | – |
| 0.070 | – | Cc1ncc2c(n1)CCN(CCN1CCN(c3nsc4ccccc34)CC1)C2=O [Example 90] | – |
| 0.083 | – | Cc1cncc2c1CCN(CCN1CCC(c3noc4ccccc34)CC1)C2=O [Example 138] | – |
| 0.048 | – | O=C1c2ncccc2CCN1CCN1CCN(c2nsc3cc(F)ccc23)CC1 [Example 27] | – |
| 0.210 | – | [2H]C([2H])([2H])Oc1cc2c(cn1)C(=O)N(CCN1CCN(c3nsc4ccccc34)CC1)CC2([2H])[2H] [Example 107, 2-{2-[4-(1,2-Benzoisothiazol-3-yl)piperazin-1-yl]ethyl}-6-[(^2H3)methyloxy](4,4-^2H2)-3,4-dihydro-2,7-naphthyridin-1(2H)-one] | – |
| <0.01 | – | Cn1cc2c(n1)CCN(CCN1CCN(c3noc4ccccc34)CC1)C2=O [Example 81] | – |
| <0.05 | – | O=C1c2cccnc2CCN1CCN1CCC(c2noc3ccccc23)CC1 [Example 128] | – |
| <0.05 | – | Cc1cc2c(cn1)C(=O)N(CCN1CCC(c3noc4ccccc34)CC1)CC2 [Example 135] | – |
| 0.055 | – | CC1CN(CCN2CCC(c3noc4ccccc34)CC2)C(=O)c2ncccc21 (stereo not drawn) [Example 15] | – |
| <0.05 | – | O=C1c2nc(F)ccc2CCN1CCN1CCC(c2noc3ccccc23)CC1 [Example 188, 7-{2-[4-(1,2-Benzoisoxazol-3-yl)piperidin-1-yl]ethyl}-2-fluoro-6,7-dihydro-1,7-naphthyridin-8(5H)-one] | – |

| SMILES | Metabolic stability in human hepatic microsome [1] [mL/min/mg protein] | D2 Ki/5-HT1A Ki (human D2 receptor) | D2 Ki/5-HT2A Ki (human D2 receptor) |
| --- | --- | --- | --- |
| Cc1ncc2c(=O)n(CCN3CCC(c4noc5ccccc45)CC3)ccc2n1 [Example 194, 6-{2-[4-(1,2-Benzoisoxazol-3-yl)piperidin-1-yl]ethyl}-2-methylpyrido[4,3-d]pyrimidin-5(6H)-one] | <0.05 | – | – |

Reference: patent US11466007B2, “Substituted lactams showing serotonin 5-HT receptor activity” (Sumitomo Pharma Co., Ltd., priority 2018, dated 2022)
